Results published in US20180118721A1, “PYRIMIDINE DERIVATIVES” (Merck Patent GmbH, priority 2015, published 2018).

Experiments:
[1] = target: T1, purified human recombinant MTH1 (human MTH1, residues 42-197) (Homo sapiens, UniProt P36639); assay: MTH1 enzymatic assay (luminescence-based, PPiLight); assay type: biochemical; conditions: 6 μM 8-oxo-dGTP, Table 1, grouped
T1 construct: human MTH1, residues 42-197, Uniprot-ID: P36639, expressed in E. coli; made in house; host or cells: E. coli
Experimental: The IC50 value was determined by a MTH1 enzymatic assay. The assay comprises the principal steps of incubating a mixture of MTH1, the compound in question at different concentrations and 8-oxo-2′-deoxyguanosine-5′-triphosphate (8-oxo-dGTP) in assay buffer. Nucleotide triphosphate hydrolysis by MTH1, i.e. decomposition of 8-oxo-2′-deoxyguanosine-5′-triphosphate, produces 8-oxo-2′-deoxyguanosine-5′-monophosphate (8-oxo-dGMP) and pyrophosphate (PPi). The amount of generated pyrophosphate (PPi) is then measured by a bioluminescent reaction. In detail: The MTH1 (human mutT homologue 1) enzymatic assay is performed as a luminescence-based 384-well assay. […] The assay buffer contains 100 mM Tris-acetate pH 7.5, 40 mM NaCl, 10 mM Mg(OAc)2, 0.005% Tween 20 and 2 mM dithiothreitol (DTT). […] Then, in a second step, the substrate 8-oxo-dGTP is added and the reaction mixture is incubated for 30 minutes at 22° C. The pharmacologically relevant assay volume is 5 PI. The final concentrations in the assay during incubation of the reaction mixture are 0.1-0.2 nM, typically 0.1 nM, MTH1 and 6 μM 8-oxo-dGTP. After incubation of the reaction mixture, the generation of pyrophosphate (PPi) as a result of nucleotide triphosphate (8-oxo-dGTP) hydrolysis by MTH1 is detected using the PPiLight inorganic pyrophosphate assay kit (Lonza) (third step). 2 to 5 μl, such as 3 to 5 μl, typically 3 or 4 μl, for instance 4 μl, of a 1:1 mixture of PPiLight converting reagent (AMP) and PPiLight detection reagent are added to the reaction mixture. In the presence of pyrophosphate, the detection reagent catalyzes the conversion of AMP to ATP. Luciferase then produces light from the newly formed ATP and luciferin. The amount of light produced is directly proportional to the amount of PPi in the sample. Following signal development for 1 h the plates are analysed in an EnVision (PerkinElmer) microplate reader using the ultra sensitive luminescence option. Data are processed employing the Genedata Screener software. In particular, IC50 values are determined in the usual manner (using the Hill Equation) by fitting a dose-response curve to the data points using nonlinear regression analysis.
Hill Equation: Y=S0+(Sinf−S0)/(1+(10^logIC50/10^c)^n); Y: luminescence signal (response), S0: activity level at zero concentration of test compound, Sinf=activity level at infinite concentration, Hill coefficient n=measure of the slope at IC50, c=concentration in logarithmic units corresponding to the values on the x-axis of the dose response curve plot

[2] = target: T2, humanMTH1 (aminoacids 42 to 197) (Homo sapiens, UniProt P36639); assay: Binding affinities and kinetics on MTH1 surfaces by surface plasmon resonance (SPR); conditions: SPR, Biacore4000, 25° C.; Table 1, grouped; read-out: KD IC50
T2 construct: humanMTH1 (aminoacids 42 to 197); His tag at the N-terminus; purchased Abnova ab99390; host or cells: E. coli
Experimental: The SPR experiments were performed using a Biacore4000 instrument. […] HumanMTH1 was immobilized on Biacore CM5 chips at 25° C. and a flow rate of 10 μL/min using amine coupling at pH 5.5 and in presence of 1 μM MSC2567771B-1 according to Biacore's standard protocol. MTH1 was applied at a concentration of 10 μg/mL and depending on the duration of the injection time immobilization levels between 500 and 2,000 RU were obtained. Sample compounds were applied in form of titration series with a doubling of concentration at each subsequent injection. In general, 10 concentrations were injected covering a dilution range of 500 fold. Before and after each of these titration series the binding capability of the surface was controlled by the injection of the positive control S-Crizotinib at a fixed concentration of 2 μM. Kinetic titration experiments were performed at 25° C. with a flow rate of 30 μL/min, a sample contact time of 90 sec and a dissociation time of 420 sec in running buffer (20 mM Tris-HCl (Tris(hydroxymethyl)-aminomethane HCl) pH 7.40, 150 mM NaCl, 5 mM MgCl2, 1 mM DTT (dithiothreitol), 0.1 mM EGTA (ethylene glycol tetraacetic acid), 0.05% Tween 20) containing 2% DMSO (dimethyl sulfoxide). Buffer injections identical to the sample injections were executed at the beginning of the successive series for the purpose of double referencing. Solvent correction cycles (eight correction points, 1.4%-2.8% DMSO) were run at the same intervals. For surface conditioning ten start-up cycles (buffer injections) were run. Data points were collected at a sample rate of 10 Hz.
Data sets were processed and analyzed using the software Biacore4000 Evaluation, version 1.0. Solvent corrected and double-referenced association and dissociation phase data were fitted to a simple 1:1 interaction model with mass transport limitations.
Measured values are indicated as KD IC50 in the Table below.

Compound | IC50 [1] [nM] | Kd [2] [nM]
CNc1cc(N2CCC[C@](O)(c3ccccc3)C2)nc(N)n1 (single isomer, unassigned) [Example 91] | 1 to 100 | 1 to 100
CNc1cc(N2CCCCC2Cc2ccccc2OC)nc(N)n1 (single isomer, unassigned) [Example 107] | 1 to 100 | 1 to 100
C[C@H]1C(c2ccccc2)CCN1c1cc(NC2CC2)nc(N)n1 (stereo in doubt) [Example 54, N4-Cyclopropyl-6-((2S,3R)-2-methyl-3-phenyl-pyrrolidin-1-yl)-pyrimidine-2,4-diamine] | 1 to 100 | 1 to 100
C[C@H]1[C@H](c2ccccc2)CCN1c1cc(NC2CC2)nc(N)n1 (stereo in doubt) [Example 55, N4-Cyclopropyl-6-((2S,3S)-2-methyl-3-phenyl-pyrrolidin-1-yl)-pyrimidine-2,4-diamine] | 1 to 100 | 1 to 100
C[C@@H]1[C@H](c2ccccc2)CCN1c1cc(NC2CC2)nc(N)n1 (stereo in doubt) [Example 56, N4-Cyclopropyl-6-((2R,3S)-2-methyl-3-phenyl-pyrrolidin-1-yl)-pyrimidine-2,4-diamine] | 1 to 100 | 1 to 100
C[C@@H]1C(c2ccccc2)CCN1c1cc(NC2CC2)nc(N)n1 (stereo in doubt) [Example 57, N4-Cyclopropyl-6-((2R,3R)-2-methyl-3-phenyl-pyrrolidin-1-yl)-pyrimidine-2,4-diamine] | 1 to 100 | 1 to 100
Nc1nc(NC2CC2)cc(N2CC[C@@H](O)C2)n1 [Example 29, (R)-1-(2-Amino-6-cyclopropylamino-pyrimidin-4-yl)-pyrrolidin-3-ol] | 1 to 100 | 1 to 100
Nc1nc(NC2CC2)cc(N2CCCC2c2ccccc2)n1 (centres unmarked) [Example 30, N4-Cyclopropyl-6-(2-phenyl-pyrrolidin-1-yl)-pyrimidine-2,4-diamine] | 1 to 100 | 1 to 100
CC1CC2CCCCC2N1c1cc(NC2CC2)nc(N)n1 (centres unmarked) [Example 31, N4-Cyclopropyl-6-(2-methyl-octahydro-indol-1-yl)-pyrimidine-2,4-diamine] | 1 to 100 | 1 to 100
Nc1nc(NC2CC2)cc(N2CCC(O)(c3ccccc3)C2)n1 (centres unmarked) [Example 32, 1-(2-Amino-6-cyclopropylamino-pyrimidin-4-yl)-3-phenyl-pyrrolidin-3-ol] | 1 to 100 | 1 to 100
CC1CCCN1c1cc(NC2CC2)nc(N)n1 (centres unmarked) [Example 33, N4-Cyclopropyl-6-(2-methyl-pyrrolidin-1-yl)-pyrimidine-2,4-diamine] | 1 to 100 | 1 to 100
Nc1nc(NC2CC2)cc(N2CCCC2Cc2ccccc2)n1 (centres unmarked) [Example 34, 6-(2-Benzyl-pyrrolidin-1-yl)-N4-cyclopropyl-pyrimidine-2,4-diamine] | < 1 | 1 to 100
Nc1nc(NC2CC2)cc(N2CCc3ccccc32)n1 [Example 35, N4-Cyclopropyl-6-(2,3-dihydro-indol-1-yl)-pyrimidine-2,4-diamine] | 1 to 100 | 1 to 100
CC1(O)CCN(c2cc(NC3CC3)nc(N)n2)C1 (centres unmarked) [Example 43, 1-(2-Amino-6-cyclopropylamino-pyrimidin-4-yl)-3-methyl-pyrrolidin-3-ol] | 1 to 100 | 1 to 100
Nc1nc(NC2CC2)cc(N2CC[C@H](O)C2)n1 [Example 44, (S)-1-(2-Amino-6-cyclopropylamino-pyrimidin-4-yl)-pyrrolidin-3-ol] | 1 to 100 | 1 to 100
C[C@@H]1C[C@H](O)CN1c1cc(NC2CC2)nc(N)n1 [Example 45, (3S,5R)-1-(2-Amino-6-cyclopropylamino-pyrimidin-4-yl)-5-methyl-pyrrolidin-3-ol] | 1 to 100 | 1 to 100
C[C@H]1C[C@@H](O)CN1c1cc(NC2CC2)nc(N)n1 [Example 46, (3R,5S)-1-(2-Amino-6-cyclopropylamino-pyrimidin-4-yl)-5-methyl-pyrrolidin-3-ol] | < 1 | < 1
Nc1nc(NC2CC2)cc(N2CCC[C@@H]2Cc2ccccc2Cl)n1 [Example 47, 6-[(R)-2-(2-Chloro-benzyl)-pyrrolidin-1-yl]-N4-cyclopropyl-pyrimidine-2,4-diamine] | < 1 | < 1
Nc1nc(NC2CC2)cc(N2CCC[C@H]2Cc2ccccc2Cl)n1 [Example 48, 6-[(S)-2-(2-Chloro-benzyl)-pyrrolidin-1-yl]-N4-cyclopropyl-pyrimidine-2,4-diamine] | 1 to 100 | 1 to 100
Nc1nc(NC2CC2)cc(N2CC[C@@](O)(C(F)(F)F)C2)n1 [Example 49, (S)-1-(2-Amino-6-cyclopropylamino-pyrimidin-4-yl)-3-trifluoromethyl-pyrrolidin-3-ol] | < 1 | 1 to 100
Nc1nc(NC2CC2)cc(N2CC[C@](O)(C(F)(F)F)C2)n1 [Example 50, (R)-1-(2-Amino-6-cyclopropylamino-pyrimidin-4-yl)-3-trifluoromethyl-pyrrolidin-3-ol] | 1 to 100 | 1 to 100
CNc1cc(N2C(=O)CC[C@H]2CO)nc(N)n1 [Example 99, (S)-1-(2-Amino-6-methylamino-pyrimidin-4-yl)-5-hydroxymethyl-pyrrolidin-2-one] | > 100 | –
CNc1cc(N2CCCC2C(C)C)nc(N)n1 (centres unmarked) [Example 101, 6-(2-Isopropyl-pyrrolidin-1-yl)-N4-methyl-pyrimidine-2,4-diamine-formate] | < 1 | –
CNc1cc(N2CCCC2C2CCCC2)nc(N)n1 (centres unmarked) [Example 102, 6-(2-Cyclopentyl-pyrrolidin-1-yl)-N4-methyl-pyrimidine-2,4-diamine] | < 1 | –
CNc1cc(N2CCC(c3ccccc3)C2=O)nc(N)n1 (centres unmarked) [Example 103, 1-(2-Amino-6-methylamino-pyrimidin-4-yl)-3-phenyl-pyrrolidin-2-one] | 1 to 100 | –
Nc1nc(NC2CC2)cc(N2C(=O)CCC2c2ccc(Cl)cc2)n1 (centres unmarked) [Example 104, 1-(2-Amino-6-cyclopropylamino-pyrimidin-4-yl)-5-(4-chloro-phenyl)-pyrrolidin-2-one] | > 100 | –
CNc1cc(N2CCCC2c2ccsc2)nc(N)n1 (centres unmarked) [Example 111, N4-Methyl-6-(2-thiophen-3-yl-pyrrolidin-1-yl)-pyrimidine-2,4-diamine] | < 1 | –
Nc1nc(NC2CC2)cc(N2CCCC2C(=O)NCCc2ccc(S(=O)(=O)F)cc2)n1 (centres unmarked) [Example 119, 4-(2-{[1-(2-Amino-6-cyclopropylamino-pyrimidin-4-yl)-pyrrolidine-2-carbonyl]-amino}-ethyl)-benzenesulfonyl fluoride] | 1 to 100 | –
Cc1ccc(CCNc2cc(N3CCC(F)(F)C3)nc(N)n2)cc1 [Example 145, 6-(3,3-Difluoro-pyrrolidin-1-yl)-N4-(2-p-tolyl-ethyl)-pyrimidine-2,4-diamine-formiate] | 1 to 100 | –
